In brackets after ≈: the same amount, converted by molar mass.
Experiments:
[1] = Water solubility (Test Example 1); assay type: physicochemical; conditions: for solubility: aqueous buffer, thermodynamic from solid
Protocol: 1.1. Preparation of Reagents
The 100 mL strength reagents were prepared as follows:
pH=3.0: phosphate buffer solution: 100 ml of 20 mmol/L NaH2PO4, 0.1M H3PO4, adjusting pH to 3.0.
pH=4.0: phosphate buffer solution: 100 ml of 20 mmol/L NaH2PO4, 0.1M H3PO4, adjusting pH to 4.0. […]
An appropriate amount of test compound was accurately weighed. The solution was added at a small amount each time for several times and stirred until the compound was dissolved, and the content of the compound in the solution was determined.

[2] = Chemical stability of the compounds (Test Example 1); assay type: physicochemical; conditions: purity loss after placing for 7 days; 4° C. and room temperature
Protocol: 2.1 Test of Stability of the Compounds
About 1 mg of sample was weighed into a vial, then the vial was placed in a vacuum bag and the bag was vacuumized. Then the bag was put into a container containing color-changing silica gel and sealed. Two parallel samples were prepared. Enough samples were prepared according to the sampling time point and placed at 4° C. and room temperature respectively.

[3] = Plasma stability test (Test Example 3); assay type: in vitro ADME; conditions: human plasma; for plasma concentration of the compound of the examples / plasma concentration of rolapitant after metabolism of the compound of the examples: 37° C.; for stability and metabolism to rolapitant in plasma (in words): up to 180 min
Protocol: The compounds of Example 4, Example 6, Example 10 and Example 11.
Human fresh plasma was donated by volunteers with informed consent.
1) The test compounds in Table 3 were respectively prepared into 30 mM stock solutions with DMSO for later use.
2) The 30 mM stock solution was diluted with DMSO solution to solution I at a concentration of 1600 μM. Then the 1600 μM solution I was diluted with acetonitrile (ACN) to a working solution II at a concentration of 16 μM.
3) 7 time points of 0, 15, 30, 60, 90, 120 and 180 min were set in the experiment with two parallel samples for each time point. Two sample groups were set for each compound. 75 μL plasma and 5 μL of the above prepared working solution II with a concentration of 16 μM were added to each group. The reaction system was incubated at 37° C. until the preset time when the reaction was stopped by 300 μL of the ACN solution containing the internal standard. The reaction mixture was centrifuged at 3700 rpm for 10 min, and the supernatant was collected for analysis.
4) Preparation of the standard curve: the previously diluted 1600 μM solution I was diluted with acetonitrile to 1.5 μM/mL solution III as the standard curve for later use. The standard curve concentration was set to […]. After dilution of each concentration of the standard curve, 75 μL plasma was added to 5 μL of each concentration point at a final concentration of 0.02, 0.05, 0.1, 0.25, 0.75, 1.0 and 1.5 uM, respectively. 300 μL stop solution was then added to the samples quickly which was then centrifuged at 3700 rpm for 10 min, and the supernatant was collected for LC-MSMS analysis.

Compound | plasma concentration of the compound of the examples ([3]; 0 min) [nM] | plasma concentration of the compound of the examples ([3]; 15 min) [nM] | plasma concentration of the compound of the examples ([3]; 30 min) [nM] | plasma concentration of the compound of the examples ([3]; 60 min) [nM] | plasma concentration of the compound of the examples ([3]; 90 min) [nM] | plasma concentration of the compound of the examples ([3]; 120 min) [nM] | plasma concentration of the compound of the examples ([3]; 180 min) [nM] | stability and metabolism to rolapitant in plasma (in words) [3] | Chemical stability [2] | other results
Cc1oc(=O)oc1CN1C(=O)CC[C@]12CC[C@@](CO[C@H](C)c1cc(C(F)(F)F)cc(C(F)(F)F)c1)(c1ccccc1)NC2 [Example 3] | – | – | – | – | – | – | – | – | Good (purity reduced by <0.5% after placing for 7 days) | solubility ([1]; PH = 5): < 100 µg/mL
C[C@@H](OC[C@@]1(c2ccccc2)CC[C@]2(CCC(=O)N2)CN1C(=O)OCCN1CCN(C)CC1)c1cc(C(F)(F)F)cc(C(F)(F)F)c1 [Example 4] | 1160 | 980 | 990 | 1000 | 970 | 810 | 780 | relatively stable in plasma | Good (purity reduced by <0.5% after placing for 7 days) | solubility ([1]; phosphate buffer, PH = 3): 2080 µg/mL (≈ 3100 µM)
C[C@@H](OC[C@@]1(c2ccccc2)CC[C@]2(CCC(=O)N2C(=O)OCC(=O)O)CN1)c1cc(C(F)(F)F)cc(C(F)(F)F)c1 [Example 6] | 980 | 850 | 910 | 850 | 770 | 700 | 530 | overall amount of metabolism in plasma is relatively small | Good (purity reduced by <0.5% after placing for 7 days) | solubility ([1]; phosphate buffer, PH = 3): 1120 µg/mL (≈ 1860 µM)
C[C@@H](OC[C@@]1(c2ccccc2)CC[C@]2(CCC(=O)N2COC(=O)N(C)C)CN1)c1cc(C(F)(F)F)cc(C(F)(F)F)c1 [Example 9] | – | – | – | – | – | – | – | – | Good (purity reduced by <0.5% after placing for 7 days) | solubility ([1]; phosphate buffer, PH = 3): < 100 µg/mL
C[C@@H](OC[C@@]1(c2ccccc2)CC[C@]2(CCC(=O)N2)CN1C(=O)OCOC(=O)CN)c1cc(C(F)(F)F)cc(C(F)(F)F)c1 [Example 12] | – | – | – | – | – | – | – | – | Poor (purity reduced by >2.0% after placing for 7 days) | –
C[C@H](N)C(=O)OCOC(=O)N1C[C@@]2(CCC(=O)N2)CC[C@@]1(CO[C@H](C)c1cc(C(F)(F)F)cc(C(F)(F)F)c1)c1ccccc1 [Example 13] | – | – | – | – | – | – | – | – | Moderate (purity reduced by 0.5%~2.0% after placing for 7 days) | –
CC(OC(=O)[C@@H](N)C(C)C)OC(=O)N1C[C@@]2(CCC(=O)N2)CC[C@@]1(CO[C@H](C)c1cc(C(F)(F)F)cc(C(F)(F)F)c1)c1ccccc1 (stereo partly shown) [Example 14] | – | – | – | – | – | – | – | – | Good (purity reduced by <0.5% after placing for 7 days) | solubility ([1]; phosphate buffer, PH = 4): 4500 µg/mL (≈ 6540 µM)
C[C@@H](OC[C@@]1(c2ccccc2)CC[C@]2(CCC(=O)N2)CN1C(=O)OCOC(=O)[C@@H](N)CCCCN)c1cc(C(F)(F)F)cc(C(F)(F)F)c1 [Example 17] | – | – | – | – | – | – | – | – | Moderate (purity reduced by 0.5%~2.0% after placing for 7 days) | –
CC(C)[C@@H](N)C(=O)OCOC(=O)N1C[C@@]2(CCC(=O)N2)CC[C@@]1(CO[C@H](C)c1cc(C(F)(F)F)cc(C(F)(F)F)c1)c1ccccc1.O=C(O)C(F)(F)F [Example 18] | – | – | – | – | – | – | – | – | Good (purity reduced by <0.5% after placing for 7 days) | Water solubility ([1]; PH = 4): 2.62 mg/mL (PH = 4) mg/ml

Now from value to molecule, other results behind:

plasma concentration of the compound of the examples ([3]; 0 min) [nM] | plasma concentration of the compound of the examples ([3]; 15 min) [nM] | plasma concentration of the compound of the examples ([3]; 30 min) [nM] | plasma concentration of the compound of the examples ([3]; 60 min) [nM] | plasma concentration of the compound of the examples ([3]; 90 min) [nM] | plasma concentration of the compound of the examples ([3]; 120 min) [nM] | plasma concentration of the compound of the examples ([3]; 180 min) [nM] | stability and metabolism to rolapitant in plasma (in words) [3] | Compound | Chemical stability [2] | other results
1040 | 920 | 970 | 960 | 930 | 950 | 880 | relatively stable in plasma | CC(C)[C@H](N)C(=O)OCCCOC(=O)N1C[C@@]2(CCC(=O)N2)CC[C@@]1(CO[C@H](C)c1cc(C(F)(F)F)cc(C(F)(F)F)c1)c1ccccc1.O=C(O)C(F)(F)F [Example 10] | – | Water solubility ([1]; PH = 3): 1.86 mg/mL(PH = 3) mg/ml; plasma concentration of rolapitant after metabolism of the compound of the examples ([3]; 0 min): 0 nM; plasma concentration of rolapitant after metabolism of the compound of the examples ([3]; 15 min): 0 nM; plasma concentration of rolapitant after metabolism of the compound of the examples ([3]; 30 min): 0 nM; plasma concentration of rolapitant after metabolism of the compound of the examples ([3]; 60 min): 0 nM; plasma concentration of rolapitant after metabolism of the compound of the examples ([3]; 90 min): 0 nM; plasma concentration of rolapitant after metabolism of the compound of the examples ([3]; 120 min): 0 nM; plasma concentration of rolapitant after metabolism of the compound of the examples ([3]; 180 min): 0 nM
1010 | 990 | 910 | 920 | 1030 | 970 | 950 | relatively stable in plasma | CC(C)[C@H](N)C(=O)OCCOC(=O)N1C[C@@]2(CCC(=O)N2)CC[C@@]1(CO[C@H](C)c1cc(C(F)(F)F)cc(C(F)(F)F)c1)c1ccccc1.O=C(O)C(F)(F)F [Example 11] | Good (purity reduced by <0.5% after placing for 7 days) | Water solubility ([1]; PH = 3): 2.81 mg/mL(PH = 3) mg/ml; plasma concentration of rolapitant after metabolism of the compound of the examples ([3]; 0 min): 10 nM; plasma concentration of rolapitant after metabolism of the compound of the examples ([3]; 15 min): 0 nM; plasma concentration of rolapitant after metabolism of the compound of the examples ([3]; 30 min): 0 nM; plasma concentration of rolapitant after metabolism of the compound of the examples ([3]; 60 min): 10 nM; plasma concentration of rolapitant after metabolism of the compound of the examples ([3]; 90 min): 0 nM; plasma concentration of rolapitant after metabolism of the compound of the examples ([3]; 120 min): 0 nM; plasma concentration of rolapitant after metabolism of the compound of the examples ([3]; 180 min): 0 nM

— patent US12421260B2, “Neurokinin-1 antagonist” (SHANGHAI SHENGDI PHARMACEUTICAL CO., LTD, priority 2019, dated 2025)
